Holding throughout (assay): MIC, standard microdilution
For one assay, the system named is S. aureus 745. In kind it is cell-based, Staphylococcus aureus. Particulars: for MIC: Staphylococcus aureus, read-out: minimum inhibitory concentration (MIC). The text has this: (§1) The antibacterial activities of the compounds have been determined by standard microdilution technique (National Committee for Clinical Laboratory Standards. 1997. Methods for dilution antimicrobial susceptibility tests for bacteria that grow aerobically, 4th edition. Approved standard M7-A4. National Committee for Clinical Laboratory Standards, Wayne, Pa.).

The next assay relates to S. aureus 1086. In kind it is cell-based, Staphylococcus aureus. Particulars: for MIC: Staphylococcus aureus, read-out: minimum inhibitory concentration (MIC).
From the text: as §1

A further assay relates to S. aureus ATCC29213. It counts as cell-based, Staphylococcus aureus. Particulars: for MIC: Staphylococcus aureus, read-out: minimum inhibitory concentration (MIC).
From the text: as §1

Assay [1] concerns P. aeruginosa ATCC27853 (+Ery. 32 μg/ml). It counts as cell-based.
From the text: as §1

For another assay, the system named is E. coli ATCC25922. It counts as cell-based. Particulars: for MIC: Escherichia coli, read-out: minimum inhibitory concentration (MIC).
From the text: as §1

Another assay relates to St. pneumoniae SL199T. It counts as cell-based, Streptococcus pneumoniae. Particulars: for MIC: Streptococcus pneumoniae, read-out: minimum inhibitory concentration (MIC).
From the text: as §1

The next assay has as its system St. pneumoniae 1/4. It counts as cell-based, Streptococcus pneumoniae. Particulars: for MIC: Streptococcus pneumoniae, read-out: minimum inhibitory concentration (MIC).
From the text: as §1

A further assay has as its system St. pneumoniae 12288. In kind it is cell-based, Streptococcus pneumoniae. Particulars: for MIC: Streptococcus pneumoniae, read-out: minimum inhibitory concentration (MIC).
From the text: as §1

The next assay concerns St. pneumoniae 1/1. It counts as cell-based, Streptococcus pneumoniae. Particulars: for MIC: Streptococcus pneumoniae, read-out: minimum inhibitory concentration (MIC).
From the text: as §1

Converted amounts (≈) assume the structure as drawn.

As to `CC[C@H]1OC(=O)[C@H](C)C(=O)[C@H](C)[C@@H](O[C@@H]2O[C@H](C)C[C@H](N(C)C)[C@H]2O)[C@](C)(OC)C[C@@H](C)C(=O)[C@H](C)[C@H]2[C@H](Sc3ccc(OC)c(OC)c3)C(=O)O[C@@]21C` [Compound I-12], the “minimum inhibitory concentration (MIC)” value is more than 16 µg/mL in the assay on S. aureus 745; 0.5 µg/mL (≈ 0.641 µM) with S. aureus 1086; 0.5 µg/mL (≈ 0.641 µM) with S. aureus ATCC29213; more than 16 µg/mL in assay [1]; more than 16 µg/mL with E. coli ATCC25922; 8 µg/mL (≈ 10.3 µM) in the assay with St. pneumoniae SL199T. Further, the “minimum inhibitory concentration (MIC)” value in the assay with St. pneumoniae 1/4 is 1 µg/mL (≈ 1.28 µM); in the assay with St. pneumoniae 12288, 16 µg/mL (≈ 20.5 µM); in the assay with St. pneumoniae 1/1, “<=0.5 μg/ml”.

On to `CC[C@H]1OC(=O)[C@H](C)C(=O)[C@H](C)[C@@H](O[C@@H]2O[C@H](C)C[C@H](N(C)C)[C@H]2O)[C@](C)(OC)C[C@@H](C)C(=O)[C@H](C)[C@H]2[C@H](SCCc3ccccn3)C(=O)O[C@@]21C` [Compound I-13, (3S,3aR,4R,6R,8R,9R,10R,12R,15R,15aS)-15-Ethyloctahydro-8-methoxy-4,6,8,10,12,15a-hexamethyl-3-[[2-(2-pyridinyl)ethyl]thio]-9-[[3,4,6-trideoxy-3-(dimethylamino)-β-D-xylo-hexopyranosyl]oxy]-2H-furo[2,3-c]oxacyclotetradecin-2,5,11,13(3H,6H,12H)-tetrone], for which the MIC in the assay on S. aureus 745 was more than 16 µg/mL; in the assay on S. aureus 1086, not above 0.25 µg/mL; in the assay with S. aureus ATCC29213 it was not above 0.25 µg/mL; with E. coli ATCC25922 it was 16 µg/mL (≈ 21.4 µM); in the assay on St. pneumoniae SL199T, 2 µg/mL (≈ 2.67 µM); in the assay on St. pneumoniae 1/4, 1 µg/mL (≈ 1.34 µM). For the same compound, the MIC with St. pneumoniae 12288 was 8 µg/mL (≈ 10.7 µM); with St. pneumoniae 1/1, not above 0.5 µg/mL. Moreover, in assay [1], the “minimum inhibitory concentration (MIC)” value is more than 16 µg/mL.

In the case of `CC[C@H]1OC(=O)[C@H](C)C(=O)[C@H](C)[C@@H](O[C@@H]2O[C@H](C)C[C@H](N(C)C)[C@H]2O)[C@](C)(OC)C[C@@H](C)C(=O)[C@H](C)[C@H]2[C@H](SCCn3ccc(-c4cccnc4)n3)C(=O)O[C@@]21C` [Compound I-16, (3S,3aR,4R,6R,8R,9R,10R,12R,15R,15aS)-15-Ethyloctahydro-8-methoxy-4,6,8,10,12,15a-hexamethyl-3-[[2-[3-(3-pyridinyl)-1H-pyrazol-1-yl]-ethyl]thio]-9-[[3,4,6-trideoxy-3-(dimethylamino)-β-D-xylo-hexopyranosyl]oxy]-2H-furo[2,3-c]oxacyclotetradecin-2,5,11,13(3H,6H,12H)-tetrone], the MIC in the assay with S. aureus 745 is more than 16 µg/mL; in the assay with S. aureus 1086 it was not above 0.12 µg/mL; in the assay with S. aureus ATCC29213, not above 0.12 µg/mL; in the assay on E. coli ATCC25922 it was more than 16 µg/mL; in the assay with St. pneumoniae SL199T, 0.5 µg/mL (≈ 0.613 µM); with St. pneumoniae 1/4, not above 0.12 µg/mL. Moreover, the MIC in the assay with St. pneumoniae 12288 is 0.5 µg/mL (≈ 0.613 µM); with St. pneumoniae 1/1 it was not above 0.12 µg/mL. In assay [1], the “minimum inhibitory concentration (MIC)” value was more than 16 µg/mL.

`CC[C@H]1OC(=O)[C@H](C)C(=O)[C@H](C)[C@@H](O[C@@H]2O[C@H](C)C[C@H](N(C)C)[C@H]2O)[C@](C)(OC)C[C@@H](C)C(=O)[C@H](C)[C@H]2[C@H](SCCn3ccc(-c4ccncc4)n3)C(=O)O[C@@]21C` [Compound I-19, (3S,3aR,4R,6R,8R,9R,10R,12R,15R,15aS)-15-Ethyloctahydro-8-methoxy-4,6,8,10,12,15a-hexamethyl-3-[[2-[3-(4-pyridinyl)-1H-pyrazol-1-yl]ethyl]thio]-9-[[3,4,6-trideoxy-3-(dimethylamino)-β-D-xylo-hexopyranosyl]oxy]-2H-furo[2,3-c]oxacyclotetradecin-2,5,11,13(3H,6H,12H)-tetrone]: the MIC is more than 16 µg/mL in the assay on S. aureus 745; not above 0.12 µg/mL in the assay on S. aureus 1086; not above 0.12 µg/mL with S. aureus ATCC29213; more than 16 µg/mL in the assay on E. coli ATCC25922; 1 µg/mL (≈ 1.23 µM) in the assay with St. pneumoniae SL199T; not above 0.12 µg/mL with St. pneumoniae 1/4. Also, the MIC was 4 µg/mL (≈ 4.91 µM) with St. pneumoniae 12288 and not above 0.12 µg/mL in the assay on St. pneumoniae 1/1. In addition, in assay [1], the “minimum inhibitory concentration (MIC)” value is more than 16 µg/mL.

`CC[C@H]1OC(=O)[C@H](C)C(=O)[C@H](C)[C@@H](O[C@@H]2O[C@H](C)C[C@H](N(C)C)[C@H]2O)[C@](C)(OC)C[C@@H](C)C(=O)[C@H](C)[C@H]2[C@H](SCCn3cnc(-c4cccnc4)c3)C(=O)O[C@@]21C` [Compound I-20, (3S,3aR,4R,6R,8R,9R,10R,12R,15R,15aS)-15-Ethyloctahydro-8-methoxy-4,6,8,10,12,15a-hexamethyl-3-[[2-[4-(3-pyridinyl)-1H-imidazol-1-yl]ethyl]thio]-9-[[3,4,6-trideoxy-3-(dimethylamino)-β-D-xylo-hexopyranosyl]oxy]-2H-furo[2,3-c]oxacyclotetradecin-2,5,11,13(3H,6H,12H)-tetrone]: the MIC in the assay on S. aureus 745 is more than 16 µg/mL; in the assay on S. aureus 1086, 0.25 µg/mL (≈ 0.307 µM); in the assay with S. aureus ATCC29213 it was 0.25 µg/mL (≈ 0.307 µM); in the assay with E. coli ATCC25922, more than 16 µg/mL; in the assay on St. pneumoniae SL199T it was 2 µg/mL (≈ 2.45 µM); in the assay on St. pneumoniae 1/4, not above 0.12 µg/mL. Further, the MIC in the assay with St. pneumoniae 12288 was 2 µg/mL (≈ 2.45 µM); with St. pneumoniae 1/1, not above 0.12 µg/mL. In assay [1], the “minimum inhibitory concentration (MIC)” value is more than 16 µg/mL.

On to `CC[C@H]1OC(=O)[C@H](C)C(=O)[C@H](C)[C@@H](O[C@@H]2O[C@H](C)C[C@H](N(C)C)[C@H]2O)[C@](C)(OC)C[C@@H](C)C(=O)[C@H](C)[C@H]2[C@H](SCCn3cncn3)C(=O)O[C@@]21C` [Compound I-21, (3S,3aR,4R,6R,8R,9R,10R,12R,15R,15aS)-15-Ethyloctahydro-8-methoxy-4,6,8,10,12,15a-hexamethyl-3-[[2-[1H-1,2,4-triazol-1-yl]ethyl]thio]-9-[[3,4,6-trideoxy-3-(dimethylamino)-β-D-xylo-hexopyranosyl]oxy]-2H-furo[2,3-c]oxacyclotetradecin-2,5,11,13(3H,6H,12H)-tetrone], for which the MIC is more than 16 µg/mL with S. aureus 745; 0.25 µg/mL (≈ 0.338 µM) in the assay on S. aureus 1086; 0.25 µg/mL (≈ 0.338 µM) in the assay on S. aureus ATCC29213; more than 16 µg/mL with E. coli ATCC25922; 8 µg/mL (≈ 10.8 µM) with St. pneumoniae SL199T; more than 16 µg/mL in the assay with St. pneumoniae 1/4. Besides, the MIC is more than 16 µg/mL in the assay with St. pneumoniae 12288 and not above 0.12 µg/mL with St. pneumoniae 1/1. The “minimum inhibitory concentration (MIC)” value in [1] is more than 16 µg/mL.

On to `CC[C@H]1OC(=O)[C@H](C)C(=O)[C@H](C)[C@@H](O[C@@H]2O[C@H](C)C[C@H](N(C)C)[C@H]2O)[C@](C)(OC)C[C@@H](C)C(=O)[C@H](C)[C@H]2[C@H](SCCn3ccnc3)C(=O)O[C@@]21C` [Compound I-22], for which the “minimum inhibitory concentration (MIC)” value is more than 16 µg/mL with S. aureus 745; 0.25 µg/mL (≈ 0.339 µM) with S. aureus 1086; 0.25 µg/mL (≈ 0.339 µM) with S. aureus ATCC29213; more than 16 µg/mL in assay [1]; more than 16 µg/mL in the assay on E. coli ATCC25922; 8 µg/mL (≈ 10.8 µM) in the assay with St. pneumoniae SL199T. Besides, the “minimum inhibitory concentration (MIC)” value in the assay with St. pneumoniae 1/4 is 1 µg/mL (≈ 1.36 µM); in the assay with St. pneumoniae 12288, more than 16 µg/mL; in the assay on St. pneumoniae 1/1, “<=0.12 μg/ml”.

The values are drawn from patent US6740642B2, “Macrolides with antibacterial activity” (BAsilea Parmaceutica AG, priority 2000, dated 2004).
